Experimental data taken from US7378419B2, “9-amino-podophyllotoxin derivatives, method for the production thereof and pharmaceutical compositions containing said derivatives” (Les Laboratoires Servier, priority 2003, dated 2008).

Columns and labels:
[1] = tested on: A549 human pulmonary carcinoma; assay: In vivo anti-tumor activity on A549 human pulmonary carcinoma; conditions: A549, 3.12 mg/kg
Source text: *Anti-Tumor Activity of the Compounds on P388 Leukemia and on A549 Human Pulmonary Carcinoma:
(§1) The anti-tumor activity is expressed in T/C %: T/C%=(median survival time of the treated animals)/(median survival time of the control animals)×100

A375 = assay: In vitro cytotoxicity, microculture tetrazolium assay, A375; type: cell-based; conditions: Homo sapiens, A-375; A375 melanoma, 48 hours exposure
Procedure: (§2) Six cell lines were used: • 1 murine leukemia: L1210 • 1 human epidermal carcinoma: KB-3-1 • 1 human pulmonary carcinoma, not small cell: A549 • 1 melanoma: A375 • 1 neuroblastoma: SK-N-MC • 1 fibrosarcoma: HT1080
(§3) The cells are cultivated in complete RPMI 1640 culture medium containing 10% of fetal calf serum, 2 mM of glutamine, 50 U/ml of penicillin, 50 μg/ml of streptomycin and 10 mM of Hepes, pH: 7.4. The cells are distributed in microplates and exposed to cytotoxic compounds for 4 doubling times, which is 48 hours. The number of viable cells is then quantified by a […] assay, the microculture tetrazolium assay (J. Carmichael et al., Cancer Res.; 47, 936-942, (1987)). The results are expressed as IC50, the cytotoxic concentration that inhibits the proliferation of the treated cells by 50%.

HT1080 = assay: In vitro cytotoxicity, microculture tetrazolium assay, HT1080; type: cell-based; conditions: Homo sapiens, HT-1080; HT1080 fibrosarcoma, 48 hours exposure
Procedure: as §2, §3

KB-3-1 = assay: In vitro cytotoxicity, microculture tetrazolium assay, KB-3-1; type: cell-based; conditions: KB-3-1 human epidermal carcinoma, 48 hours exposure
Procedure: as §2, §3

P388 leukemia = assay: In vivo anti-tumor activity on P388 leukemia; conditions: P388, 50 mg/kg, intravenously on day 1, female BDF1 mice
Procedure: The P388 line (murine leukemia) was provided by the National Cancer Institute (Frederick, Md., USA). The tumor cells (10^6 cells) were inoculated on day 0 in the peritoneal cavity of female BDF1 mice (Iffa-Credo, France) weighing from 18 to 20 g (groups of 6 animals). The products were administered intravenously on day 1.
as §1

A549 = assay: In vitro cytotoxicity, microculture tetrazolium assay, A549; type: cell-based; conditions: A549 human pulmonary carcinoma, not small cell, 48 hours exposure
Procedure: as §2, §3

L1210 cells = assay: Action on the cell cycle (G2+M accumulation); type: cell-based, murine; conditions: L1210, after 21 hours, concentration of 250 nM (control: 20%)
Procedure: The L1210 cells are incubated for 21 hours at 37° C. in the presence of various concentrations of the products tested. The cells then are fixed with 70% ethanol (v/v), washed twice in PBS and incubated for 30 minutes at 20° C. in PBS containing 100 μg/ml of RNase and 50 μg/ml of propidium iodide. The results are expressed as a percentage of cells accumulated in phase G2+M after 21 hours compared to the control (control: 20%). The compounds of examples 2 and 4 induce an accumulation of 70% and 81%, respectively, of the cells in phase G2+M after 21 hours at a concentration of 250 nM.

L1210 = assay: In vitro cytotoxicity, microculture tetrazolium assay, L1210; type: cell-based; conditions: L1210 murine leukemia, 48 hours exposure
Procedure: as §2, §3

SK-N-MC = assay: In vitro cytotoxicity, microculture tetrazolium assay, SK-N-MC; type: cell-based; conditions: Homo sapiens; SK-N-MC neuroblastoma, 48 hours exposure
Procedure: as §2, §3

COc1cc([C@@H]2c3cc4c(cc3[C@@H](NC3=C(C)C(=O)N(C)C3=O)[C@H]3COC(=O)[C@H]23)OCO4)cc(OC)c1O
melting point: 172 to 176 °C

COc1cc([C@@H]2c3cc4c(cc3[C@@H](NC3=CC(=O)N(C)C3=O)[C@H]3COC(=O)[C@H]23)OCO4)cc(OC)c1O [Example 2, 3-{[(5S,5aS,8aR,9R)-9-(4-Hydroxy-3,5-dimethoxyphenyl)-8-oxo-5,5a,6,8,8a,9-hexahydrofuro[3′,4′:6,7]naphtho[2,3-d][1,3]dioxol-5-yl]amino}-1-methyl-1H-pyrrole-2,5-dione]
T/C [1]: 225% | IC50 (A375): 44.2 nM | IC50 (HT1080): 75.8 nM | IC50 (KB-3-1): 66.6 nM | T/C (median survival time treated/control x 100) (P388 leukemia): > 575% | animals surviving as of day 60 (P388 leukemia): 50% | IC50 (A549): 110 nM | percentage of cells accumulated in phase G2+M (L1210 cells): 70% | IC50 (L1210; Mus musculus): 54 nM | IC50 (SK-N-MC): 106 nM

COc1cc([C@@H]2c3cc4c(cc3[C@@H](NC3=CC(=O)N(Cc5ccc(NC(C)=O)cc5)C3=O)[C@H]3COC(=O)[C@H]23)OCO4)cc(OC)c1O[Si](C)(C)C(C)(C)C
melting point: 177 to 179 °C

COc1cc([C@@H]2c3cc4c(cc3[C@@H](NC3=CC(=O)N(Cc5ccc(F)cc5)C3=O)[C@H]3COC(=O)[C@H]23)OCO4)cc(OC)c1O
melting point: 214 to 216 °C

C=CCN1C(=O)C=C(N[C@@H]2c3cc4c(cc3[C@@H](c3cc(OC)c(O)c(OC)c3)[C@H]3C(=O)OC[C@@H]32)OCO4)C1=O
melting point: 180 to 183 °C

COc1cc([C@@H]2c3cc4c(cc3[C@@H](NC3=CC(=O)N(Cc5ccc(F)cc5)C3=O)[C@H]3COC(=O)[C@H]23)OCO4)cc(OC)c1O[Si](C)(C)C(C)(C)C
melting point: 182 to 184 °C

COc1cc([C@@H]2c3cc4c(cc3[C@@H](NC3=CC(=O)N(Cc5ccc(NC(C)=O)cc5)C3=O)[C@H]3COC(=O)[C@H]23)OCO4)cc(OC)c1O
melting point: 200 to 204 °C (dec.)

COc1cc([C@@H]2c3cc4c(cc3[C@@H](NC3=CC(=O)N(Cc5ccccc5)C3=O)[C@H]3COC(=O)[C@H]23)OCO4)cc(OC)c1O [Example 4, 3-{[(5S,5aS,8aR,9R)-9-(4-Hydroxo-3,5-dimethoxyphenyl)-8-oxo-5,5a,6,8,8a,9-hexahydrofuro[3′,4′:6,7]naphtho[2,3-d][1,3]dioxol-5-yl]amino}-1-benzyl-1H-pyrrole-2,5-dione]
percentage of cells accumulated in phase G2+M (L1210 cells): 81% | IC50 (L1210): 29 nM

COc1cc([C@@H]2c3cc4c(cc3[C@@H](NC3=CC(=O)N(Cc5ccc(C(F)(F)F)cc5)C3=O)[C@H]3COC(=O)[C@H]23)OCO4)cc(OC)c1O
melting point: 184 to 186 °C

COc1cc([C@@H]2c3cc4c(cc3[C@@H](NC3=CC(=O)N(CCCCCC(=O)O)C3=O)[C@H]3COC(=O)[C@H]23)OCO4)cc(OC)c1O
melting point: 150 to 152 °C
